Entries after “also recorded” stand apart in the source; their conditions may differ.
Experiments:
HepG2 cells [1] = assay: BODIPY-FL LDL uptake in HepG2 cells (high content microscopy); format: cell-based, human; conditions: treated 20 hours; BODIPY-FL LDL uptake monitored 5 hours
Procedure: TRIB1 inducers increase the rate of LDL uptake. HepG2 cells grown under standard culture conditions (10% FBS) were treated for 20 hours with compounds 2a, 14a and 12a at indicated concentrations and the uptake of BODIPY-FL conjugated LDL particles was monitored for 5 hours using high content microscopy. To control for regulation of LDL uptake by cholesterol, cells were grown in media depleted for (0.5% LPDS—lipoprotein deficient serum) or supplemented with cholesterol (0.5% LPDS plus cholesterol ([…] cholesterol and […] 25-OH cholesterol)).

SREBF2 = assay: qPCR SREBF2 transcript level in HepG2 cells; format: cell-based, human; set-up: key: A: Increase <2-fold; B: Increase >2-fold; X: Decrease <2-fold; Y: Decrease >2-fold; No significant change
Procedure: (§1) In the primary screen, HepG2 cells were plated in 384-well plates at 2000 cells per well and incubated for 20 hours with each compound in duplicate at 10 microM concentration. Then RNA was isolated, reverse-transcribed to cDNA, and stored at −80° C. Expression levels of TRIB1 and other target genes, such as SORT1 and PCSK9, were determined by quantitative PCR. Relative gene expression level was normalized to expression of the housekeeping gene, GAPDH. A “hit” was defined as those compounds that caused a greater than 2-fold increase in relative target gene expression when normalized to GAPDH expression, compared to DMSO-treated control. Using these criteria, 130 hits were identified for TRIB1 (0.8% hit rate).
(§2) Further analysis of the expression levels of various proteins in the cholesterol and triglyceride biosynthetic pathways in response to TRIB1 inducer treatment was performed. In particular, transcript levels of additional lipoprotein metabolism pathway proteins SCAP, SREBF1, SREBF2, HMGCR, HMGCS, SCD1, FASN and MTTP were assessed by qPCR, along with TRIB1, LDLR, and PCSK9. The gene expression profile for the same subset of genes was also assessed after treatment with the statin atorvastatin (Lipitor), commonly used in therapy for hypercholesterolemia and other cardiovascular diseases.

TRIB1 = assay: qPCR TRIB1 expression in HepG2 cells; format: cell-based, human; conditions: for fold induction at 10 µM: Homo sapiens, 20 h, HepG2 cells
Procedure: as §1, §2
(§3) The kinetics of the modulation of TRIB1, LDLR, PCSK9 and MTTP gene expression after treatment by select TRIB1 inducer compounds was monitored by qPCR analysis (FIG. 4). RNA was extracted from cells at various timepoints over 28 hours of treatment (0, 2, 4, 6, 8, 24, 28 hours). Specifically, compounds 12a and 14a induced transcriptional responses over time similar to those produced by berberine, a plant alkaloid used in Chinese medicine. […] Both compound 12a and compound 14a induce TRIB1 and LDLR and repress PCSK9 and MTTP expression with similar kinetics and similar fold change as berberine Importantly, both compounds induce these gene expression changes at much lower concentrations than berberine. […] This increased potency indicates the potential therapeutic efficacy of such compounds for treatment of cardiovascular diseases, particularly hypercholesterolemia and related conditions.

HepG2 cells [2] = assay: Cell Titer Glo (CTG) cell viability assay; format: cell-based, human; set-up: key: A: Increase <2-fold; B: Increase >2-fold; X: Decrease <2-fold; Y: Decrease >2-fold; No significant change; conditions: cell viability (ATP)
Procedure: Cell viability was determined using a Cell Titer Glo (CTG) assay ([…]) after treatment with TRIB1 inducer compounds. In this assay, the number of viable cells in culture is based on quantitation of ATP, which indicates metabolically active cells. Addition of the reagent results in cell lysis and generation of a luminescent signal proportional to the amount of ATP present, which is directly proportional to the number of viable, metabolically active cells present in culture. Most TRIB1 inducer compounds had no significant effect on cell viability.

LDLR [3] = assay: qPCR LDLR expression in HepG2 cells; format: cell-based, human; conditions: for qPCR LDLR: HepG2 cells
Procedure: as §1, §2, §3

LDLR [4] = assay: ELISA of LDLR protein in HepG2 cells; format: cell-based, human; set-up: key to ELISA LDLR: A: Increase <2-fold; B: Increase >2-fold; X: Decrease <2-fold; Y: Decrease >2-fold; No significant change; conditions: for ELISA LDLR: HepG2 cells
Procedure: (§4) Additional secondary assays were performed in HepG2 cells to further characterize the cellular response to treatment with select confirmed TRIB1 inducer hits. The results of the ELISA, CTG, and qPCR secondary assays are summarized in Table B. For all secondary assays, the experiments were performed using powders of freshly purified compounds.
(§5) To further characterize the relationship of TRIB1 induction and PCSK9 reduction, ELISAs were performed to measure the levels of secreted ApoB, PCSK9, and LDLR. […] As predicted treatment with TRIB1 inducer hits caused a decrease in ApoB levels detected by ELISA. In parallel effort, 3200 BIOA and NATP compounds were screened for PCSK9 expression inhibitors. Hits were defined as inducing greater than 3-fold downregulation of PCSK9, and 3.8% of the screened compounds were confirmed as hits. […] In further experiments, a strong correlation was confirmed between TRIB1 induction and PCSK9 repression in DOS Collection hits. ELISA analysis confirmed that treatment with TRIB1 inducers reduced the PCSK9 protein levels. LDLR protein levels were also analyzed by ELISA to determine whether compounds that modulate both TRIB1 and PCSK9 had any effect on LDLR protein levels.

APOC3 = assay: Transcriptional profiling of APOC3 gene in HepG2 cells; format: cell-based, human; conditions: 10 μM, 24 hours
Description: Expression of APOC3 is associated with increased levels of triglycerides in plasma and carriers of APOC3 gene null mutation have low levels of triglycerides and are protected from cardiovascular disease (Pollin et al., Science, 322:1702, 2008).

HMGCR = assay: qPCR HMGCR transcript level in HepG2 cells; format: cell-based, human
Procedure: as §1, §2

HMGCS = assay: qPCR HMGCS transcript level in HepG2 cells; format: cell-based; conditions: Homo sapiens, 20 h
Procedure: as §1, §2

PCSK9 [5] = assay: qPCR PCSK9 expression in HepG2 cells; format: cell-based, human; conditions: for fold induction at 10 µM: Homo sapiens, 20 h, HepG2 cells
Procedure: as §1, §2, §3

SCD1 = assay: qPCR SCD1 transcript level in HepG2 cells; format: cell-based; conditions: Homo sapiens, 20 h
Procedure: as §1, §2

PCSK9 [6] = assay: ELISA of secreted PCSK9 protein in HepG2 cells; format: cell-based, human; conditions: for ELISA PCSK9: HepG2 cells
Procedure: as §4, §5

SREBF1 = assay: qPCR SREBF1 transcript level in HepG2 cells; format: cell-based, human; set-up: key: A: Increase <2-fold; B: Increase >2-fold; X: Decrease <2-fold; Y: Decrease >2-fold; No significant change
Procedure: as §1, §2

ApoB = assay: ELISA of secreted ApoB in HepG2 cells; format: cell-based, human; conditions: for ELISA ApoB: HepG2 cells
Procedure: as §4, §5

LDLR [7] = assay: qPCR LDLR expression in HepG2 cells; format: cell-based, human; conditions: overnight simvastatin, then compound
FASN = assay: qPCR FASN transcript level in HepG2 cells; format: cell-based; conditions: Homo sapiens, 20 h
Procedure: as §1, §2

SCAP = assay: qPCR SCAP transcript level in HepG2 cells; format: cell-based, human; set-up: key: A: Increase <2-fold; B: Increase >2-fold; X: Decrease <2-fold; Y: Decrease >2-fold; No significant change
Procedure: as §1, §2

[8] = at the maximal dose tested, HepG2

Compound | qPCR SREBF2 (SREBF2) | fold induction at 10 µM (TRIB1) | CTG (HepG2 cells [2]) | qPCR LDLR (LDLR [3]) | ELISA LDLR (LDLR [4]) | qPCR HMGCR (HMGCR) | fold induction at 10 µM (HMGCS) | fold induction at 10 µM (PCSK9 [5]) | fold induction at 10 µM (SCD1) | ELISA PCSK9 (PCSK9 [6]) | qPCR SREBF1 (SREBF1) | ELISA ApoB (ApoB) | fold induction at 10 µM (FASN) | qPCR SCAP (SCAP) | also measured
CN1C(=O)c2cc(NC(=O)c3ccc(C(F)(F)F)cc3)ccc2OC[C@@H]2O[C@@H](CC(=O)NC3Cc4ccccc4C3)CC[C@@H]21 [Compound 2a] | N | > 2 | N | B (Increase >2-fold) | B (Increase >2-fold) | Y (Decrease >2-fold) | > 2 | > 2 | > 2 | Y (Decrease >2-fold) | N | Y (Decrease >2-fold) | > 2 | N | rate of LDL uptake (in words) (HepG2 cells [1]): robust increase; TRIB1 expression (in words) (TRIB1; HepG2, qPCR): robustly induced; LDLR expression (in words) (LDLR [3]; HepG2, qPCR): induction of LDLR expression; also recorded: robustly induced; increase of the LDL receptor protein in the cell (LDLR [4]; HepG2): 3 fold; expression of APOC3 gene (in words) (APOC3): down regulates; PCSK9 expression (in words) (PCSK9 [5]; HepG2, qPCR): strongly reduced; inhibition of expression of PCSK9 mRNA (PCSK9 [5]; [8]): 70%; expression of PCSK9 stimulated by pretreatment with atorvastatin (in words) (PCSK9 [5]; atorvastatin pretreatment): potently reduced; inhibition of secretion of PCSK9 protein into the media (PCSK9 [6]; [8]): 70%; secretion of apoB into the media / ApoB levels (in words) (ApoB; HepG2): inhibited secretion of apoB; induction of LDLR expression in combination with simvastatin (in words) (LDLR [7]): additive effect
O=C(C[C@@H]1CC[C@@H]2[C@H](COC[C@H](O)CN2CCC(F)(F)F)O1)NCc1ccc(Oc2ccccc2)cc1 [Compound 10a] | N | > 2 | N | B (Increase >2-fold) | N | Y (Decrease >2-fold) | > 2 | > 2 | > 2 | X (Decrease <2-fold) | N | Y (Decrease >2-fold) | < 2 | N | –
O=C(C[C@H]1C[C@H]2c3cc(NC(=O)c4ccc5c(c4)OCO5)ccc3O[C@H]2[C@H](CO)O1)NCc1ccc(Oc2ccccc2)cc1 [Compound 11a] | Y (Decrease >2-fold) | > 2 | Y (Decrease >2-fold) | B (Increase >2-fold) | B (Increase >2-fold) | Y (Decrease >2-fold) | > 2 | > 2 | > 2 | Y (Decrease >2-fold) | Y (Decrease >2-fold) | Y (Decrease >2-fold) | > 2 | N | –
O=C(C[C@H]1C[C@H]2c3cc(NS(=O)(=O)c4ccc(F)cc4)ccc3O[C@H]2[C@H](CO)O1)NCc1ccc(Oc2ccccc2)cc1 [Compound 13a] | N | > 2 | N | B (Increase >2-fold) | X (Decrease <2-fold) | Y (Decrease >2-fold) | > 2 | > 2 | > 2 | Y (Decrease >2-fold) | N | Y (Decrease >2-fold) | < 2 | N | –
Cc1cc(C(=O)Nc2ccc3c(c2)C(=O)N(C)[C@H]2CC[C@@H](CC(=O)NCc4ccc(-c5ccccc5)cc4)O[C@@H]2CO3)no1 [Compound 3a] | B (Increase >2-fold) | > 2 | N | B (Increase >2-fold) | B (Increase >2-fold) | Y (Decrease >2-fold) | > 2 | > 2 | > 2 | X (Decrease <2-fold) | N | Y (Decrease >2-fold) | > 2 | N | –

Source: patent US9526720B2, “Modulators of hepatic lipoprotein metabolism” (The Broad Institute, Inc., priority 2012, dated 2016)
